These are literature values, as cited in patent publication US8637310B2, “Use of a rock inhibitor to sustain primary human keratinocytes in a proliferative state” (The United States of America, as represented by the …, priority 2008, dated 2014).

The subject of the data set is airway epithelial cells. The settings on record: Moore et al. 2004; cited from earlier work.

As for `O=S(=O)(c1cccc2cnccc12)N1CCCNCC1` [HA 1077], the “effect on airway epithelial cells” value was “induces membrane ruffling, loss of actin stress fibers and apoptosis”.
